According to PubChem BioAssay (NCI):
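48-hour exposure; five concentrations; linearly interpolated endpoints. The concentration for full growth arrest is given as TGI.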

Assays:
Test in all cases: NCI anticancer screen, dose series, 48 h
[1] = system: MALME-3M melanoma
[2] = system: NCI-H226 lung
[3] = system: UO-31 renal
[4] = system: COLO 205 colon
[5] = system: RXF 393 renal
[6] = system: IGROV1 ovarian
[7] = system: K-562 leukemia
[8] = system: SK-MEL-2 melanoma
[9] = system: MDA-N
[10] = system: CAKI-1 renal
[11] = system: OVCAR-5 ovarian
[12] = system: KM12 colon
[13] = system: SN12C renal
[14] = system: OVCAR-3 ovarian
[15] = system: MDA-MB-231 breast
[16] = system: U251 CNS
[17] = system: SF-268 CNS
[18] = system: PC-3 prostate
[19] = system: ACHN renal
[20] = system: SK-MEL-5 melanoma
[21] = system: NCI-H460 lung
[22] = system: RPMI-8226 leukemia
[23] = system: A549 NSCLC
[24] = system: NCI-H522 lung
[25] = system: UACC-257 melanoma
[26] = system: SK-OV-3 ovarian
[27] = system: HOP-62 NSCLC
[28] = system: HS 578T breast
[29] = system: HOP-92 NSCLC
[30] = system: HCC-2998 colon
[31] = system: NCI/ADR-RES ovarian
[32] = system: BT-549 breast
[33] = system: SF-539 CNS
[34] = system: SW-620 colon
[35] = system: UACC-62 melanoma
[36] = system: HCT-116 colon
[37] = system: NCI-H23 lung
[38] = system: TK-10 renal
[39] = system: MCF7 breast
[40] = system: SR leukemia
[41] = system: HL-60(TB) leukemia
[42] = system: EKVX NSCLC
[43] = system: SNB-19 CNS
[44] = system: OVCAR-8 ovarian
[45] = system: CCRF-CEM leukemia
[46] = system: M14 melanoma
[47] = system: OVCAR-4 ovarian
[48] = system: A498 renal
[49] = system: SNB-75 CNS
[50] = system: 786-0 renal
[51] = system: HT29 colon
[52] = system: MDA-MB-435
[53] = system: DU-145 prostate
[54] = system: MOLT-4 leukemia
[55] = system: SF-295 CNS
[56] = system: HCT-15 colon
[57] = system: SK-MEL-28 melanoma
[58] = system: T-47D breast
[59] = system: LOX IMVI melanoma

C[C@]12C[C@H](c3ccccc3)Nc3ccccc3N1C(c1ccccc1)=NO2
TGI [1]: > 100 µM | TGI [2]: > 100 µM | TGI [3]: > 100 µM | TGI [4]: > 100 µM | TGI [5]: > 100 µM | TGI [6]: > 100 µM | TGI [7]: > 100 µM | TGI [8]: > 100 µM | TGI [9]: > 100 µM | TGI [10]: > 100 µM | TGI [11]: > 100 µM | TGI [12]: > 100 µM | TGI [13]: > 100 µM | TGI [14]: > 100 µM | TGI [15]: > 100 µM | TGI [16]: > 100 µM | TGI [17]: > 100 µM | TGI [18]: > 100 µM | TGI [19]: > 100 µM | TGI [20]: > 100 µM | TGI [21]: > 100 µM | TGI [22]: > 100 µM | TGI [23]: > 100 µM | TGI [24]: > 100 µM | TGI [25]: > 100 µM | TGI [26]: > 100 µM | TGI [27]: > 100 µM | TGI [28]: > 100 µM | TGI [29]: > 100 µM | TGI [30]: > 100 µM | TGI [31]: > 100 µM | TGI [32]: > 100 µM | TGI [33]: > 100 µM | TGI [34]: > 100 µM | TGI [35]: > 100 µM | TGI [36]: > 100 µM | TGI [37]: > 100 µM | TGI [38]: > 100 µM | TGI [39]: > 100 µM | TGI [40]: 26.6 µM | TGI [41]: > 100 µM | TGI [42]: 92.6 µM | TGI [43]: > 100 µM | TGI [44]: > 100 µM | TGI [45]: > 100 µM | TGI [46]: > 100 µM | TGI [47]: > 100 µM | TGI [48]: > 100 µM | TGI [49]: > 100 µM | TGI [50]: > 100 µM | TGI [51]: > 100 µM | TGI [52]: > 100 µM | TGI [53]: > 100 µM | TGI [54]: 78.8 µM | TGI [55]: > 100 µM | TGI [56]: > 100 µM

COc1cc(S(=O)(=O)Nc2nc(-c3ccc(N4C(=O)C(CC(=O)O)SC4c4ccccc4O)cc3)cs2)ccc1Cl (configuration not stated)
TGI [1]: > 100 µM | TGI [2]: > 100 µM | TGI [3]: > 100 µM | TGI [4]: > 100 µM | TGI [5]: > 100 µM | TGI [57]: > 100 µM | TGI [6]: > 100 µM | TGI [7]: > 100 µM | TGI [8]: > 100 µM | TGI [9]: > 100 µM | TGI [10]: > 100 µM | TGI [11]: > 100 µM | TGI [12]: > 100 µM | TGI [13]: > 100 µM | TGI [14]: > 100 µM | TGI [15]: > 100 µM | TGI [16]: > 100 µM | TGI [17]: > 100 µM | TGI [18]: > 100 µM | TGI [19]: > 100 µM | TGI [20]: > 100 µM | TGI [21]: > 100 µM | TGI [23]: > 100 µM | TGI [24]: > 100 µM | TGI [25]: > 100 µM | TGI [58]: > 100 µM | TGI [26]: > 100 µM | TGI [27]: > 100 µM | TGI [28]: > 100 µM | TGI [29]: > 100 µM | TGI [30]: > 100 µM | TGI [31]: > 100 µM | TGI [33]: > 100 µM | TGI [59]: > 100 µM | TGI [34]: > 100 µM | TGI [35]: > 100 µM | TGI [36]: > 100 µM | TGI [37]: 86.7 µM | TGI [38]: > 100 µM | TGI [39]: > 100 µM | TGI [40]: > 100 µM | TGI [41]: 57 µM | TGI [43]: > 100 µM | TGI [44]: > 100 µM | TGI [46]: > 100 µM | TGI [47]: > 100 µM | TGI [48]: > 100 µM | TGI [49]: > 100 µM | TGI [50]: > 100 µM | TGI [51]: > 100 µM | TGI [52]: > 100 µM | TGI [53]: > 100 µM | TGI [54]: > 100 µM | TGI [55]: > 100 µM | TGI [56]: > 100 µM

O=C1c2cccc3cc([N+](=O)[O-])cc(c23)C(=O)N1CCCN1CCN(CCCNc2ccc3ncn4c5ccccc5c(=O)c2c34)CC1
TGI [2]: < 0.005 µM | TGI [57]: > 25.5 µM | TGI [8]: > 29 µM | TGI [9]: 0.579 µM | TGI [10]: 0.00674 µM | TGI [11]: > 16.9 µM | TGI [14]: > 17.2 µM | TGI [15]: 0.62 µM | TGI [16]: 0.00861 µM | TGI [17]: 16.1 µM | TGI [18]: > 17.1 µM | TGI [21]: > 50 µM | TGI [22]: > 50 µM | TGI [23]: > 50 µM | TGI [25]: > 50 µM | TGI [26]: > 20 µM | TGI [27]: 1.74 µM | TGI [28]: 8.75 µM | TGI [29]: > 50 µM | TGI [31]: 0.0864 µM | TGI [32]: 0.0361 µM | TGI [33]: 0.0871 µM | TGI [34]: > 50 µM | TGI [35]: > 50 µM | TGI [39]: < 0.005 µM | TGI [42]: > 50 µM | TGI [43]: > 50 µM | TGI [44]: 0.173 µM | TGI [45]: 5 µM | TGI [46]: 0.0785 µM | TGI [47]: > 50 µM | TGI [48]: 5.67 µM | TGI [49]: 0.187 µM | TGI [51]: < 0.005 µM | TGI [52]: > 50 µM | TGI [53]: > 19.9 µM | TGI [54]: > 50 µM | TGI [56]: > 50 µM

COc1ccc2c(c1)/C(=C\c1c(C)nc3n1CCS3)C(=O)N2
TGI [3]: > 100 µM | TGI [4]: 41.9 µM | TGI [5]: > 100 µM | TGI [57]: > 100 µM | TGI [6]: > 100 µM | TGI [7]: > 100 µM | TGI [8]: > 100 µM | TGI [9]: 13.6 µM | TGI [10]: > 100 µM | TGI [11]: > 100 µM | TGI [12]: > 100 µM | TGI [13]: 73.8 µM | TGI [14]: 76 µM | TGI [15]: > 100 µM | TGI [16]: 60 µM | TGI [18]: 55.2 µM | TGI [19]: > 100 µM | TGI [20]: > 100 µM | TGI [21]: > 100 µM | TGI [22]: > 100 µM | TGI [23]: > 100 µM | TGI [25]: > 100 µM | TGI [58]: > 100 µM | TGI [26]: 63.3 µM | TGI [27]: > 100 µM | TGI [29]: > 100 µM | TGI [30]: > 100 µM | TGI [31]: > 100 µM | TGI [32]: 86.3 µM | TGI [33]: 54.7 µM | TGI [59]: > 100 µM | TGI [34]: > 100 µM | TGI [35]: > 100 µM | TGI [36]: > 100 µM | TGI [37]: > 100 µM | TGI [38]: > 100 µM | TGI [39]: > 100 µM | TGI [40]: > 100 µM | TGI [41]: 66.8 µM | TGI [42]: > 100 µM | TGI [43]: > 100 µM | TGI [44]: > 100 µM | TGI [45]: > 100 µM | TGI [46]: 93.7 µM | TGI [48]: 99.6 µM | TGI [49]: > 100 µM | TGI [50]: > 100 µM | TGI [51]: > 100 µM | TGI [52]: 11.5 µM | TGI [53]: > 100 µM | TGI [54]: > 100 µM | TGI [55]: 98.9 µM | TGI [56]: > 100 µM
